Experimental data as given in US6177438A, “Morphinan derivatives and pharmaceutical use thereof” (priority 1993, dated 2001).
Counter-ions that a name gives are not always drawn. Like-named read-outs stand apart in the source and are kept apart here.

Legend:
[1] = test system: extracted mouse vas deferens preparation; experiment: Opioid activity test using an extracted mouse vas deferens preparation (suppression of electrically induced contractions); design: species or system male ddy mouse; details: electrical stimulus 0.1 Hz, 37° C.
Protocol: (§1) A male ddy mouse was used in this test. The vas deferens extracted from the animal was suspended in a Magnus tube filled with Krebes-Henseleit solution (NaCl 118 mM; KCl 4.7 mM; CaCl2 2.5 mM; KH2 PO4 1.1 mM; NaHCO3 25 mM; Glucose 11 mM) warmed to 37° C. and ventilated with 5% carbon dioxide and 95% oxygen. Electrical stimulus was performed at 0.1 Hz for 5.0 ms by means of ring-shaped platinum electrodes located above and below. Tissue contractions were recorded on a polygraph using an isometric transducer.
(§2) After adequately washing with nutrient solution and the contraction reaction stabilized, the μ agonist, naloxone, the δ agonist, NTI, or the κ agonist, norBNI, was added after which the test compound was again cumulatively added after roughly 20 minutes. The Ke value was calculated using the following calculation formula from the difference in the efficacies of both agonists.

κ receptor = molecular target: T1, κ receptor (Mus musculus, UniProt P33534); experiment: Opioid activity test using an extracted mouse vas deferens preparation, Ke with norBNI; design: species or system male ddy mouse; details: for receptor selectivity of agonist (κ): in words; for Ke, norBNI: κ, norBNI added
T1 construct: from tissue; host or cells: mouse (male ddy) vas deferens
Protocol: as §1, §2
(§3) Ke=[Conc. of added agonist]/(IC50 ratio-1)
(§4) IC50 ratio=IC50 in the presence of agonist/IC50 in the absence of agonist

[2] = Diuretic action (urine output for 5 hours after physiological saline loading in rats); assay type: in vivo, male Wistar rats; details: Rattus norvegicus, sc, 5 hours after saline 20 ml/kg p.o.; for ED (200% urine output): dose giving urine output of 200 (non-dosed group = 100); for ED (500% urine output): dose giving urine output of 500 (non-dosed group = 100)
Protocol: 7-8 week old male Wistar rats were used in this test after prohibiting from drinking water for 1 hour before the start of testing. After discharging any urine accumulated in the bladder by gently stimulating the lower abdomens of the animals, the drug was administered subcutaneously. After 30 minutes, the animals were then forcibly given 20 ml/kg of physiological saline orally. The animals were placed in metabolic cages immediately after administration of the drug (2 animals/cage) and urine output for 5 hours after loading with physiological saline was measured. Drug efficacy was expressed in the form of those doses resulting in urine outputs of 200 and 500, respectively, when the urine output of a non-dosed group was taken to be 100. Those doses were expressed as the ED200 and ED500 values, respectively.

[3] = test system: acetic acid-induced writhing in ddy mice; experiment: animal or person; assay type: in vivo, 5 week old ddy mice; details: for ED50: s.c. 15 minutes before acetic acid
Protocol: 5 week old ddy mice were used in this test. After intraperitoneal administration of 0.1 ml of 0.6% aqueous acetic acid per 10 g of body weight, the number of writhing reactions that occurred in 10 minutes starting 10 minutes after administration was evaluated for the indicator. The test drug was administered subcutaneously into the backs of the animals 15 minutes before administration of acetic acid.

δ receptor = molecular target: T2, δ receptor (Mus musculus, UniProt P32300); design: species or system male ddy mouse
T2 construct: The vas deferens extracted from the animal was suspended in a Magnus tube; from tissue; host or cells: mouse (male ddy) vas deferens

μ receptor = molecular target: T3, μ receptor (Mus musculus, UniProt P42866); experiment: Opioid activity test using an extracted mouse vas deferens preparation, Ke with naloxone; design: species or system male ddy mouse; details: naloxone added
T3 construct: naloxone as mu antagonist (printed 'agonist')
Protocol: as §1, §2, §3, §4

[4] = Mus musculus, sc, read-out: ED50
[5] = mouse vas deferens, δ, NTI added

T2 sequence (P32300 whole entry): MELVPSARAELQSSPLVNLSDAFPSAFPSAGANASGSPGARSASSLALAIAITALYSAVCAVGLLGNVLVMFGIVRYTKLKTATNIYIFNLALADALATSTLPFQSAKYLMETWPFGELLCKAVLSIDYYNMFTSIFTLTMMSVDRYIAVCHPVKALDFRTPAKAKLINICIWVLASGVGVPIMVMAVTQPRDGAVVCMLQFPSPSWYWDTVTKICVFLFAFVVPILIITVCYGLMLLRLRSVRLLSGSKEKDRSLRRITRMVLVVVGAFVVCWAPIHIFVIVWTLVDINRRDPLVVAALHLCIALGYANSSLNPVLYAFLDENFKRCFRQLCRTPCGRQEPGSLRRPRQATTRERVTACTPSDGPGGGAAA
T1 sequence (P33534 whole entry): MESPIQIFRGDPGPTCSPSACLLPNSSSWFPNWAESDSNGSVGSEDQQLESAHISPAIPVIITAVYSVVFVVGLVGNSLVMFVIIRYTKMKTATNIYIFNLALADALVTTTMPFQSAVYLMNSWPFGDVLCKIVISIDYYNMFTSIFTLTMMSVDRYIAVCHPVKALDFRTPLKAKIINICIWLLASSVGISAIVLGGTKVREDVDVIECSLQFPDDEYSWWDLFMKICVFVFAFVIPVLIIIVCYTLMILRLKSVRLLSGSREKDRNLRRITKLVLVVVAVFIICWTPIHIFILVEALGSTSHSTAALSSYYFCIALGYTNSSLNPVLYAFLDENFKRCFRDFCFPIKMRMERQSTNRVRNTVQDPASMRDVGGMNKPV
T3 sequence (P42866 whole entry): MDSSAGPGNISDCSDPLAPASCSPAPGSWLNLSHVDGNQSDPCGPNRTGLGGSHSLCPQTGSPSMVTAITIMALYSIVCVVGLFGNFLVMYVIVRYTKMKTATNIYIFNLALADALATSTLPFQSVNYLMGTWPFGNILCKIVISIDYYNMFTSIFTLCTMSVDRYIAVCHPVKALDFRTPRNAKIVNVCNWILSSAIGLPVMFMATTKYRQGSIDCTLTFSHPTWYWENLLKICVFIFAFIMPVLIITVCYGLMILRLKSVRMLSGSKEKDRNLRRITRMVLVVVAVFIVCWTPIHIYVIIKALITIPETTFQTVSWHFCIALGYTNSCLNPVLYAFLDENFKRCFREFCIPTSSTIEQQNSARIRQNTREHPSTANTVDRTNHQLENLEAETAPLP

Structure (SMILES)	IC50 [1]	receptor selectivity of agonist (κ) (κ receptor)	Ke, norBNI (κ receptor)	ED (200% urine output) [2]	ED (500% urine output) [2]	ED50 [3, 4]	Ke, NTI (δ receptor; [5])	Ke, NTI (δ receptor)	analgesic activity ([3]; s.c., in words)	Ke, Naloxone (μ receptor)	ED50 [3]
CN(C(=O)CC(=O)c1ccccc1)[C@@H]1CC[C@@]2(O)[C@H]3Cc4ccc(O)c5c4[C@@]2(CCN3CC2CC2)[C@H]1O5 [Compound 103, 17-cyclopropylmethyl-3,14β-dihydroxy-4,5α-epoxy-6β-(N-methylbenzoylacetamido)morphinan.cndot.tartrate]	11 nM	selective agonists for κ receptors	0.657 nM	0.0827 mg/kg	5.65 mg/kg	0.069 mg/kg	–	–	–	–	–
CN(C(=O)/C=C/c1ccco1)[C@@H]1CC[C@@]2(O)[C@H]3Cc4ccc(O)c5c4[C@@]2(CCN3CC2CC2)[C@H]1O5 [Compound 70, 17-cyclopropylmethyl-3,14β-dihydroxy-4,5α-epoxy-6β-[N-methyl-trans-3-(2-furyl)acrylamido]morphinan.cndot.hydrochloride]	0.545 nM	selective agonists for κ receptors	0.198 nM	–	–	0.0016 mg/kg	–	–	–	–	–
CN(C(=O)/C=C/c1ccsc1)[C@H]1CC[C@@]2(O)[C@H]3Cc4ccc(O)c5c4[C@@]2(CCN3CC2CC2)[C@H]1O5 [Compound 91, 17-cyclopropylmethyl-3,14β-dihydroxy-4,5α-epoxy-6α-[N-methyl-trans-3-(3-thienyl)acrylamido]morphinan.cndot.tartrate]	0.378 nM	selective agonists for κ receptors	0.699 nM	0.0094 mg/kg	0.96 mg/kg	0.019 mg/kg	450 nM	–	–	–	–
CN(C(=O)/C=C/c1cccc(Cl)c1)[C@@H]1CC[C@@]2(O)[C@H]3Cc4ccc(O)c5c4[C@@]2(CCN3CC2CC2)[C@H]1O5 [Compound 154, 17-cyclopropylmethyl-3,14β-dihydroxy-4,5α-epoxy-6β-(N-methyl-3-chlorocinnamamido)morphinan hydrochloride]	–	selective agonists for κ receptors	0.133 nM	0.00214 mg/kg	0.27 mg/kg	0.001 mg/kg	–	31.5 nM	particularly strong analgesic activity	43.1 nM	–
CN(C(=O)CC(=O)c1ccccc1)[C@H]1CC[C@@]2(O)[C@H]3Cc4ccc(O)c5c4[C@@]2(CCN3CC2CC2)[C@H]1O5 [Compound 98, 17-cyclopropylmethyl-3,14β-dihydroxy-4,5α-epoxy-6α-(N-methylbenzoylacetamido)morphinan.cndot.tartrate]	1.3 nM	selective agonists for κ receptors	1.35 nM	0.0065 mg/kg	0.206 mg/kg	–	–	–	–	–	0.0068 mg/kg
Cc1cccc(C#CC(=O)N(C)[C@@H]2CC[C@@]3(O)[C@H]4Cc5ccc(O)c6c5[C@@]3(CCN4CC3CC3)[C@H]2O6)c1.Cl [Compound 172, 17-cyclopropylmethyl-3,14β-dihydroxy-4,5α-epoxy-6β-[N-methyl-3-(3-methylphenyl)propiolamido]morphinan hydrochloride]	–	selective agonists for κ receptors	0.163 nM	0.00323 mg/kg	3.03 mg/kg	0.0079 mg/kg	17.57 nM	–	–	16.16 nM	–
CN(C(=O)/C=C/c1cccc(F)c1)[C@@H]1CC[C@@]2(O)[C@H]3Cc4ccc(O)c5c4[C@@]2(CCN3CC2CC2)[C@H]1O5 [Compound 102, 17-cyclopropylmethyl-3,14β-dihydroxy-4,5α-epoxy-6β-(N-methyl-3-fluorocinnamamido)morphinan.cndot.tartrate]	1.6 nM	selective agonists for κ receptors	2.37 nM	0.0014 mg/kg	0.0154 mg/kg	0.0019 mg/kg	276 nM	–	–	–	–
CN(C(=O)/C=C/c1cccc(Br)c1)[C@@H]1CC[C@@]2(O)[C@H]3Cc4ccc(O)c5c4[C@@]2(CCN3CC2CC2)[C@H]1O5 [Compound 151, 17-cyclopropylmethyl-3,14β-dihydroxy-4,5α-epoxy-6β-(N-methyl-3-bromocinnamamido)morphinan hydrobromide]	–	selective agonists for κ receptors	0.028 nM	0.00445 mg/kg	1.56 mg/kg	0.0041 mg/kg	–	1.65 nM	–	0.94 nM	–
CCCCCCC(=O)N(C)[C@H]1CC[C@@]2(O)[C@H]3Cc4ccc(O)c5c4[C@@]2(CCN3CC2CC2)[C@H]1O5 [Compound 46, 17-cyclopropylmethyl-3,14β-dihydroxy-4,5α-epoxy-6α-(N-methylheptanamido)morphinan.cndot.hydrochloride]	1.05 nM	selective agonists for κ receptors	0.440 nM	–	–	0.013 mg/kg	–	–	–	–	–
CCCCCC(=O)N(C)[C@@H]1CC[C@@]2(O)[C@H]3Cc4ccc(O)c5c4[C@@]2(CCN3CC2CC2)[C@H]1O5 [Compound 62, 17-cyclopropylmethyl-3,14β-dihydroxy-4,5α-epoxy-6β-(N-methylhexanamido)morphinan.cndot.tartrate]	14.7 nM	selective agonists for κ receptors	0.203 nM	0.101 mg/kg	7.04 mg/kg	0.077 mg/kg	90.2 nM	–	–	–	–
CN(C(=O)Cc1ccc(F)c(F)c1)[C@H]1CC[C@@]2(O)[C@H]3Cc4ccc(O)c5c4[C@@]2(CCN3CC2CC2)[C@H]1O5 [Compound 105, 17-cyclopropylmethyl-3,14β-dihydroxy-4,5α-epoxy-6α-(N-methyl-3,4-difluorophenylacetamido)morphinan.cndot.hydrochloride]	–	–	–	0.019 mg/kg	3.3 mg/kg	0.098 mg/kg	–	–	–	–	–
CN(C(=O)/C=C/c1ccc(Cl)c(Cl)c1)[C@H]1CC[C@@]2(O)[C@H]3Cc4ccc(O)c5c4[C@@]2(CCN3CC2CC2)[C@H]1O5 [Compound 86, 17-cyclopropylmethyl-3,14β-dihydroxy-4,5α-epoxy-6α-(N-methyl-3,4-dichlorocinnamamido)morphinan.cndot.hydrochloride]	–	–	–	0.0057 mg/kg	0.229 mg/kg	0.0347 mg/kg	–	–	–	–	–
CN(C(=O)/C=C/c1ccc(Br)cc1)[C@@H]1CC[C@@]2(O)[C@H]3Cc4ccc(O)c5c4[C@@]2(CCN3CC2CC2)[C@H]1O5 [Compound 156, 17-cyclopropylmethyl-3,14β-dihydroxy-4,5α-epoxy-6β-(N-methyl-4-bromocinnamamido)morphinan hydrobromide]	–	selective agonists for κ receptors	0.091 nM	0.00545 mg/kg	0.355 mg/kg	0.0056 mg/kg	–	–	–	–	–
CN(C(=O)/C=C/C1CCCCC1)[C@H]1CC[C@@]2(O)[C@H]3Cc4ccc(O)c5c4[C@@]2(CCN3CC2CC2)[C@H]1O5 [Compound 50, 17-cyclopropylmethyl-4,5α-epoxy-3,14β-dihydroxy-6α-(N-methyl-trans-3-cyclohexylacrylamido)morphinan.cndot.hydrochloride]	–	–	–	0.0021 mg/kg	0.0325 mg/kg	0.011 mg/kg	–	–	–	–	–
